Data published in patent publication US8097605B2, “Combination of anticholinergics and inhibitors of phosphodiesterase type 4 for the treatment of respiratory disease” (Meda Pharma GmbH & Co. KG, priority 2004, dated 2012).

Columns and labels:
M3 muscarinic receptors = M3 muscarinic receptors (Homo sapiens, UniProt P20309); settings: kinetics studies; cited from earlier work
M1-M3 receptors = settings: cited from earlier work
[1] = dog, in vivo, 15 mg/kg; cited from earlier work
[2] = test system: allergen-induced airway eosinophilia; settings: Brown Norway rats, administered intrapulmonary; cited from earlier work
[3] = test system: human peripheral blood mononuclear cells (PBMCs); experiment: LPS-induced TNFα release from human PBMCs/monocytes (sandwich ELISA); format: cell-based; settings: LPS 1 μg/ml
Method: The influence of R,R-glycopyrrolate in combination with PDE4 inhibitors on TNF secretion was investigated by using human peripheral blood mononuclear cells (PBMCs). The study was approved by our institutional Ethics Committee according to the International Declarations of Helsinki and Tokyo.
PBMCs were isolated from heparinized blood samples of healthy donors by density gradient centrifugation. An equal volume of Hanks buffer (Life Technologies, Heidelberg, Germany) is added to heparinized whole blood samples. 15 ml Histopaque-1077 (Sigma, Deisenhofen, Germany) are overlayed with a maximum of 40 ml of blood/Hanks mixture were centrifuged for 30 min at room temperature (2000 rpm). A visible band containing PBMCs is transferred to a fresh tube and washed twice with Hanks-buffer. Finally cells are seeded in RPMI 1640 Medium (Life Technologies, Heidelberg, Germany) with Glutamax I (Gibco BRL, Eggenstein) and 10% fetal calf serum (Boehringer Mannheim, Penzberg, Germany). After isolated, PBMCs were cultured in RPMI 1640 medium supplemented with 10% fetal calf serum (FCS) at 37° C. 5% CO2 overnight. […] by adherence method, non-adherent cells were removed by changing the medium.
Cells are re-suspended at 10^6 cells/ml and incubated in 500 μl volumes in 24-well tissue culture plates (Falcon Becton Dickinson Labware) at 37° C., 5% CO2. After pre-incubation with test substances (0.5 μl/500 μl medium) for 30 min, cells were stimulated with lipopolysaccharide (LPS) (1 μg/ml). […]
Cytokine measurements in culture supernatants are done by sandwich ELISA using matched antibody pairs (Pharmingen, Heidelberg, Germany). […] Plates are read at 450 nm (reference 570 nm) in a microplate reader (Dynatech). The results are expressed as a percentage of the control level of cytokines production by cells stimulated in the absence of the compound.

Sequence of M3 muscarinic receptors (P20309 whole entry): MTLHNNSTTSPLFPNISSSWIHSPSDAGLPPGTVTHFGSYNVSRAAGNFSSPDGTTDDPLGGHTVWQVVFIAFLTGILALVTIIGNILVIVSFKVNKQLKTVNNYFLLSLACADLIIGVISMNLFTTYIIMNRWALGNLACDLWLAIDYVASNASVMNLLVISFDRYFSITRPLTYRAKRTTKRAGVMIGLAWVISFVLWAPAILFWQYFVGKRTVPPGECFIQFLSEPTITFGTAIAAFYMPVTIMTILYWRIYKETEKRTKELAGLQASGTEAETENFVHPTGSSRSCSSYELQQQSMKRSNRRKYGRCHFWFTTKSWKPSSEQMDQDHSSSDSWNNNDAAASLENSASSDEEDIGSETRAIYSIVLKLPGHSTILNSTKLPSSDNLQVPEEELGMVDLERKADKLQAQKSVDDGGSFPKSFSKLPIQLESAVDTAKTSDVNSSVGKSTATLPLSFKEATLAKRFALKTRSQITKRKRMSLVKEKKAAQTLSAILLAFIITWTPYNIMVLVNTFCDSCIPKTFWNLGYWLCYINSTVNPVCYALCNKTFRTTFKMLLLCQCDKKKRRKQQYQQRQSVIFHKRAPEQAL

C[N+]1(C)CCC(OC(=O)C(O)(c2ccccc2)C2CCCC2)C1 (racemic) [Glycopyrrolate]
dissociation from M3 muscarinic receptors (M3 muscarinic receptors): dissociates slowly | selectivity in binding to the M1-M3 receptors (M1-M3 receptors): no selectivity

O=C(Nc1c(Cl)cncc1Cl)C(=O)c1cn(Cc2ccc(F)cc2)c2ccc(O)cc12 [AWD 12-281]
emesis [1]: no emesis was induced | ID50 suppression of allergen-induced airway eosinophilia [2]: 7 µg/kg

C[N+]1(C)CC[C@@H](OC(=O)[C@](O)(c2ccccc2)C2CCCC2)C1.[Br-] [R,R-glycopyrrolate]
influence on LPS-induced TNFα release ([3]; compound alone, up to 10 μmol/l): did not influence

C[C@H]1C[C@H]2[C@@H]3CCC4=CC(=O)C=C[C@]4(C)[C@@]3(Cl)[C@@H](O)C[C@]2(C)[C@@]1(O)C(=O)CO [beclomethasone]
ID50 suppression of allergen-induced airway eosinophilia [2]: 0.1 µg/kg

COc1ccc(C2CNC(=O)C2)cc1OC1CCCC1 (centres unmarked) [rolipram]
IC35 of TNFα release inhibition ([3]; rolipram alone): 68.9 ± 15.2 nM | IC35 of TNFα release inhibition with simultaneous addition of R,R-glycopyrrolate ([3]; rolipram plus 10 μmol/l R,R-glycopyrrolate, p=0.0151): 1.70 ± 1.18 nM
